From paper PMC9774391 (ACS Omega, 2022)

Experiments:
[1] = test system: NIH/3T3 mouse embryonic fibroblast cell line; assay: Cytotoxicity test (MTT); type: cell-based; details: NIH/3T3 mouse fibroblast healthy cell line
Experimental: (§1) The NIH/3T3 cells were incubated according to the manufacturer’s recommendations. In 96-well plates, NIH/3T3 cells were seeded at a density of 1 × 10^4 cells per well. The MTT test was conducted in line with the previously mentioned standards.[19],[22],[23],[28],[30]

[2] = molecular target: BChE (Homo sapiens, UniProt P06276); assay: biochemical
Experimental: (§2) According to the modified Ellman approach outlined in our team’s earlier work, the AChE and BChE inhibitory activities of the obtained compounds were evaluated.[18]−[21]

[3] = molecular target: AChE (Homo sapiens, UniProt P22303); assay: biochemical
Experimental: as §2

[4] = molecular target: T1, MAO-B (Homo sapiens, UniProt P27338); assay: In vitro MAO-B inhibition assay (fluorometric); type: biochemical
T1 sequence (P27338 1-520): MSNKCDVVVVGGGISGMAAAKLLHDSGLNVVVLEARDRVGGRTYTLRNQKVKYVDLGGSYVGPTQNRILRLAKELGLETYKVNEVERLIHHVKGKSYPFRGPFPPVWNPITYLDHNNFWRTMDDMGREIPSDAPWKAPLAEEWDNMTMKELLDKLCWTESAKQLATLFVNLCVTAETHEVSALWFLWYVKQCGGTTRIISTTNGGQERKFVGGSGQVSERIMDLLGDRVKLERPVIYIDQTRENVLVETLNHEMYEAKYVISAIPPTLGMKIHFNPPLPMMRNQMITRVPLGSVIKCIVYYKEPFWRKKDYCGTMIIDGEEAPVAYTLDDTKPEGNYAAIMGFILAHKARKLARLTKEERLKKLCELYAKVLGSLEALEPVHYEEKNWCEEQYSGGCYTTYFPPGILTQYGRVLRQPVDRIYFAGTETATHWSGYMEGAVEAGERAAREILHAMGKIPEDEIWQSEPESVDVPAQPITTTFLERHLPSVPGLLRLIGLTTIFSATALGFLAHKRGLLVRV

[5] = molecular target: T2, MAO-A (Homo sapiens, UniProt P21397); assay: In vitro MAO-A inhibition assay (fluorometric); type: biochemical
T2 sequence (P21397 1-527): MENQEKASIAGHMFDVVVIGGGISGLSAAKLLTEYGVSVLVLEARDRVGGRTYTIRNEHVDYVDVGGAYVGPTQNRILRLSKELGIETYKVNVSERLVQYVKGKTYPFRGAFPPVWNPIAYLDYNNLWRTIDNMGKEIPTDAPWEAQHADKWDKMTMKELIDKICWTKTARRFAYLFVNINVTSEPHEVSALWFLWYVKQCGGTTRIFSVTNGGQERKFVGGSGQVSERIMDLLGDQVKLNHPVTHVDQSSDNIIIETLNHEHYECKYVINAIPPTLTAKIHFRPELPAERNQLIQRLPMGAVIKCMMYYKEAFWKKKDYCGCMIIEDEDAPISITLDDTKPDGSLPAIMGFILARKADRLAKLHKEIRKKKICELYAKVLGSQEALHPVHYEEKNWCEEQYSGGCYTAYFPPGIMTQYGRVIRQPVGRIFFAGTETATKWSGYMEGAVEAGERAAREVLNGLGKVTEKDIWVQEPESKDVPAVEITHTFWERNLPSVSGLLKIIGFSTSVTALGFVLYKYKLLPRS

[6] = Cytotoxicity test (MTT); type: cell-based; details: NIH/3T3 mouse embryonic fibroblast cells (ATCC CRL-1658), NIH/3T3 mouse fibroblast healthy cell line
Experimental: as §1

[7] = molecular target: T3, Beta Amyloid 1–42 (Aβ42) (Homo sapiens, UniProt P05067); assay: Beta Amyloid 1–42 (Aβ42) inhibitor screening assay; type: biochemical
T3 construct: The Beta Amyloid 1–42 (Aβ42) Ligand Screening Assay kit; purchased BioVision, Milpitas, CA
Excerpt: The Beta Amyloid 1–42 (Aβ42) Ligand Screening Assay kit (BioVision, Milpitas, CA) technique based on the fluorometric approach served as the basis for the experimental process.[21],[28],[29]

[8] = molecular target: T2, MAO-A; assay: Enzyme kinetics on MAO-A (Lineweaver–Burk); type: biochemical
Experimental: The experimental procedures used in the kinetic investigations were identical to those used in the inhibition experiments. […]. Acetylthiocholine iodide (ATC) and butyrylthiocholine iodide (BTC) solutions were utilized as the substrates for the ChE enzymes, with serial dilutions at six different concentrations (600, 300, 150, 75, 37.5, and 18.75 μM). The tyramine substrate solution (concentrations ranging from 20 to 0.625 μM) was produced for the MAO enzymes at six different concentrations. Separate measurements were conducted both with and without an inhibitor. Using the Microsoft Office Excel 2013 program, the resulting absorbance values were compared to various substrate concentrations, and Lineweaver–Burk plots were created.[19]−[22]
The absorbance data from the experiments and the substrate concentrations were used to generate Lineweaver–Burk plots. The graphic’s x-axis stands for 1/[S] […] […]. The intersection of these four lines on the diagram was used to define the type of substrate and inhibitor reaction against the enzyme.
Reversible and irreversible inhibition of enzymes are the two categories that inhibition is commonly subdivided into. In irreversible inhibition, the inhibitor either creates a recalcitrant complex structure or establishes a covalent bond with the enzyme. […]

[9] = DPPH free-radical scavenging activity assay; details: serial dilution 10^–3–10^–9 M; read-out: IC50 on DPPH antioxidant activity
Experimental: This approach is based on evaluating the free-radical scavenging abilities of the stable 1,1-diphenyl-2-picrylhydrazyl (DPPH) radical. To create the DPHH solution, 9.86 mg of DPPH was weighed and diluted to 25 mL with methanol. The test wells were then filled with 100 μL of the DPPH solution and 100 μL of the test solutions. Only 200 μL of methanol was used for the blank reading, while the control reading required the usage of 100 μL each of methanol and the DPPH solution. Following incubation, a spectrophotometric measurement at 517 nm was carried out.[26],[27]

T3 sequence (P05067 672-713 limits assumed): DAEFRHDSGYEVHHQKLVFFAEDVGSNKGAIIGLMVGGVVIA
AChE, sequence (P22303 32-614): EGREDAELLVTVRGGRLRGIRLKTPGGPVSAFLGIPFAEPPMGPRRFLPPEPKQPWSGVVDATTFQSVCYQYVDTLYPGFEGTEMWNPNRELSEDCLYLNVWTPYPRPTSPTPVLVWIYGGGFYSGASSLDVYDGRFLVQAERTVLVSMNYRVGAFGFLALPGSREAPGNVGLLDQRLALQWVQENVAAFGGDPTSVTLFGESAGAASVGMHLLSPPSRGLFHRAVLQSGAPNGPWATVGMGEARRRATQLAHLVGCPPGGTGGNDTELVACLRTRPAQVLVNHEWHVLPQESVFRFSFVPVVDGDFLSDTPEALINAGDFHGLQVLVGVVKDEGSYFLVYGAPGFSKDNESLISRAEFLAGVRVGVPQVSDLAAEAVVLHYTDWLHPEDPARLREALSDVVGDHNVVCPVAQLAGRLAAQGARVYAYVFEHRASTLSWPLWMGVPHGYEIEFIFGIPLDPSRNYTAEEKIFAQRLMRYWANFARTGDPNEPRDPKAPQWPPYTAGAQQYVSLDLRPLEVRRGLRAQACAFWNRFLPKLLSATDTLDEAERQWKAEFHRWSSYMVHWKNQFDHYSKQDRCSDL
BChE, sequence (P06276 29-602): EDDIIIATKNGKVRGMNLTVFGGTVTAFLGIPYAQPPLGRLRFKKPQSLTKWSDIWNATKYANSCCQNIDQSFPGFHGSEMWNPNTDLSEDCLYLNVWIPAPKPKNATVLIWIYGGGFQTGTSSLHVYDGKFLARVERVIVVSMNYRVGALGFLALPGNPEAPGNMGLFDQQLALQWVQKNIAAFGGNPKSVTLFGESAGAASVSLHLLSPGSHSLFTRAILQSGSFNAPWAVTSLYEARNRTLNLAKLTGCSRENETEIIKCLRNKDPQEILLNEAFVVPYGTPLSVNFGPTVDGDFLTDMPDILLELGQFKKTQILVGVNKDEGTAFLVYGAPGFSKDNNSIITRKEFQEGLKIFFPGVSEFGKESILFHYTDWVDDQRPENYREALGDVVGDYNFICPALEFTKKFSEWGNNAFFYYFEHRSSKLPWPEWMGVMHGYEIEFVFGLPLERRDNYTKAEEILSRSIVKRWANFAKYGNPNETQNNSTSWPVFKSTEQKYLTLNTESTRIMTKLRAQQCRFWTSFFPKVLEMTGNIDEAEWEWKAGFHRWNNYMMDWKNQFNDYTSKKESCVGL

Which results are given for COc1cc2c(cc1OC)C(=O)C(=Cc1ccc(NC(=O)CN3CCN(CCN(C)C)CC3)cc1)C2 [D24]?
IC50 [1]: 18640 ± 119 nM; human BChE inhibition (%) ([2]; 10^–3 M): 97.932 ± 2.016%; human BChE inhibition (%) ([2]; 10^–4 M): 49.401 ± 0.559%; IC50 [3]: 46.9 ± 1.9 nM; human AChE inhibition (%) ([3]; 10^–3 M): 93.224 ± 1.719%; human AChE inhibition (%) ([3]; 10^–4 M): 90.486 ± 1.298%; human AChE inhibition (%) ([3]; 10^–5 M): 82.415 ± 1.102%; human AChE inhibition (%) ([3]; 10^–6 M): 72.846 ± 1.267%; human AChE inhibition (%) ([3]; 10^–7 M): 63.963 ± 1.088%; human AChE inhibition (%) ([3]; 10^–8 M): 41.281 ± 0.623%; human AChE inhibition (%) ([3]; 10^–9 M): 18.773 ± 0.411%; human MAO-B inhibition (%) ([4]; 10^–3 M): 75.628 ± 1.426%; human MAO-B inhibition (%) ([4]; 10^–4 M): 46.324 ± 0.521%; human MAO-A inhibition (%) ([5]; 10^–3 M): 64.076 ± 0.323%; human MAO-A inhibition (%) ([5]; 10^–4 M): 25.257 ± 0.621%

Which results are given for CCCN(C)CC(=O)Nc1ccc(/C=C2\Cc3cc(OC)ccc3C2=O)cc1 [D28]?
IC50 [6]: 6520 ± 175 nM; inhibition at 1000 µM ([2]; 10^–3 M): 61.3 ± 0.997%; inhibition at 100 µM ([2]; 10^–4 M): 36.6 ± 0.667%; IC50 [3]: 24.8 ± 1 nM; inhibition at 1000 µM ([3]; 10^–3 M): 98.6 ± 1.21%; inhibition at 100 µM ([3]; 10^–4 M): 95.3 ± 1.31%; inhibition at 10 µM ([3]; 10^–5 M): 92.8 ± 1.03%; inhibition at 1 µM ([3]; 10^–6 M): 87.1 ± 1.06%; inhibition at 0.1 µM ([3]; 10^–7 M): 72 ± 0.958%; inhibition at 0.01 µM ([3]; 10^–8 M): 36 ± 0.623%; inhibition at 0.001 µM ([3]; 10^–9 M): 19.4 ± 0.455%; inhibition at 1000 µM ([7]; 10^–3 M, read-out: % β-amyloid plaque inhibition): 82.7 ± 1.68%; inhibition at 100 µM ([7]; 10^–4 M, read-out: % β-amyloid plaque inhibition): 75.6 ± 1.04%; IC50 ([7]; read-out: IC50 on β-amyloid plaque aggregation): 147 ± 5.3 nM; type of inhibition of MAO-A ([8]; Lineweaver–Burk plots): noncompetitive inhibition; Ki ([8]; secondary plot of Lineweaver–Burk data, read-out: steady-state inhibition constant (Ki), MAO-A): 107 nM; IC50 [9]: 210 ± 10 nM; IC50 [4]: 40.9 ± 1.9 nM; inhibition at 1000 µM ([4]; 10^–3 M): 92.6 ± 1.33%; inhibition at 100 µM ([4]; 10^–4 M): 89.3 ± 1.24%; inhibition at 10 µM ([4]; 10^–5 M): 80.5 ± 1.01%; inhibition at 1 µM ([4]; 10^–6 M): 75.2 ± 1.08%; inhibition at 0.1 µM ([4]; 10^–7 M): 67 ± 0.958%; inhibition at 0.01 µM ([4]; 10^–8 M): 41.5 ± 0.547%; inhibition at 0.001 µM ([4]; 10^–9 M): 18.8 ± 0.421%; IC50 [5]: 111 ± 4.7 nM; inhibition at 1000 µM ([5]; 10^–3 M): 89.6 ± 1.29%; inhibition at 10 µM ([5]; 10^–5 M): 72.7 ± 1.11%; inhibition at 1 µM ([5]; 10^–6 M): 63.4 ± 1.08%; inhibition at 0.1 µM ([5]; 10^–7 M): 59 ± 0.895%; inhibition at 0.01 µM ([5]; 10^–8 M): 39.2 ± 0.714%; inhibition at 0.001 µM ([5]; 10^–9 M): 18.7 ± 0.521%; fold stronger MAO-A inhibition compared to moclobemide ([5]; ratio of IC50 values): 50 ×
